# Results from paper PMC6687188, “Novel lactate dehydrogenase inhibitors with in vivo efficacy against Cryptosporidium parvum” (PLoS Pathogens, 2019).
# Target: recombinant CpLDH protein (Cryptosporidium parvum, UniProt Q9GT92, F198L/K295E/R251K)
row,SMILES,MEAN CpLDH INHIBITION (%)
1,CCS(=O)(=O)Nc1ccc(Nc2c3ccccc3nc3ccccc23)c(OC)c1.CS(=O)(=O)O [NSC243928],-32.64
2,Cc1c(Cl)cccc1NC(=O)/C=C/c1ccccc1 [NSC191392],-18.93
3,N#CC1(C#N)C2C=CC(c3coc4cccc2c34)C1(C#N)C#N (stereo not shown) [NSC629301],-23.71
4,COc1ccc2nc3cc([N+](=O)[O-])ccc3c(NNc3ccccc3)c2c1 [NSC689872],-7.48
5,CCCC(=O)OCC1OC(n2ccc(N)nc2=O)C(OC(=O)CCC)C1OC(=O)CCC (stereo not shown) [NSC138429],-38.75
6,C(=C/c1nc2ccccc2o1)/c1ccc2c(c1)OCO2 [NSC176655],-23.23
7,Cc1nn(-c2ccccc2)c2c1CC(=O)Nc1ccccc1-2 [NSC662553],-64.36
8,Nc1nc(=S)c2ncn(C3CC(O)C(CO)O3)c2[nH]1 (stereo not shown) [NSC71851],-30.23
9,CN(C)c1ccc(/C=N/N=C2\C(=O)Nc3c(Cl)cc(Cl)cc32)cc1 [NSC327697],-11.09
10,CCCCS(=N)(=O)CCC(N)C(=O)O (stereo not shown) [NSC326231],-24.75
11,COc1ccc(OC)c(-c2cc(=O)c3c(OC)c(OC)c(OC)c(OC)c3o2)c1 [NSC71300],-64.35
12,CCOC(=O)CNC(=O)NC12CC3CC(CC(C3)C1)C2 [NSC208914],-37.53
13,COc1c2c(c(OC)c3c1c(=O)c1ccccc1n3C)OCO2 [NSC34757],-24.18
14,C=C1C(=O)C2=CC1CCC(=O)C1(C)CCC(OC(C)=O)C(C)(C)C1CC2O (stereo not shown) [NSC302979],-1.17
15,CO[C@H]1/C=C/O[C@@]2(C)Oc3c(C)c(O)c4c(c3C2=O)C(=O)C=C(NC(=O)/C(C)=C\C=C\[C@H](C)[C@H](OC=O)[C@@H](C)[C@@H](O)[C@@H](C)[C@H](OC(C)=O)[C@@H]1C)C4=O [NSC239375],-42.34
16,CCOC(=O)NC(Nc1ccc(F)cc1)(C(=O)OCC)C(F)(F)F (stereo not shown) [NSC684845],-7.56
17,CC(C)(C)c1ccc(OC2CCO2)cc1 (stereo not shown) [NSC635975],-52.75
18,CCOC(=O)/N=C(\N)SCc1ccccc1 [NSC622684],-0.38
19,O=C1C=C(NCCc2ccccc2)c2ccccc2C1=O [NSC637731],-17.56
20,O=C(/C=C/c1c(O)ccc2ccccc12)c1cccc(O)c1 [NSC636786],-25.27
21,Cc1ccccc1NC(=O)C(=O)C(C#N)c1ccccc1C (stereo not shown) [NSC636132],-58.66
22,CC(C)(C)N(Cc1ccc2c(c1)OCO2)C(=O)/C=C\[S+]([O-])c1ccccc1 (stereo not shown) [NSC705330],-49.87
23,Clc1cc2nc[nH]c2cc1Cl [NSC326397],-5.75
24,CC1=CC(=O)c2cccc(NC3=NCCO3)c21 [NSC664331],-15.78
25,COc1ccc2c(O)c3[n+](cc2c1OC)CCc1cc2c(cc1-3)OCO2 [NSC123390],-31.27

row,SMILES,MEAN CpLDH INHIBITION (%)
1,CN(NC1=NCCO1)c1ccc2ccccc2c1 [NSC664286],-26.92
2,Fc1cccc(F)c1C1SCc2nc3ccccc3n21 (stereo not shown) [NSC625487],-32.18
3,CCC12C[N+]3([O-])CCc4c([nH]c5ccccc45)C(C(=O)OC)(c4cc5c(cc4OC)N(C)C4C(O)(C(=O)OC)C(OC(C)=O)C6(CC)C=CCN7CCC54C76)CC(C3)C1O2 (stereo not shown) [NSC304421],-126.27
4,CC(C)CCCCCCCCCCCCC(=O)NCC(=O)NC1C(C)OC(Nc2ncnc3nc[nH]c23)C(O)C1O (stereo not shown) [NSC268251],-8.04
5,CC1=C(N2CC2)C(=O)C(CO)=C(N2CC2)C1=O [NSC697726],-69.94
6,CCCCOc1ccc(NC(N)=Nc2ccc(Cl)cc2)cc1 [NSC78365],-60.70
7,CC1=C2C(=CO[C@H](C)[C@H]2C)C(=O)C(C(=O)O)=C1O [NSC186],-47.49
8,CO[C@H]1/C=C\C=C(/C)C(=O)NC2=CC(=O)C(N)=C(C[C@@H](C)C[C@H](OC)[C@H](O)[C@@H](C)/C=C(\C)[C@@H]1OC(N)=O)C2=O [NSC255109],-205.22
9,COC(=O)c1ccccc1OCc1cc(=O)oc2ccc(C)cc12 [NSC623637],-23.29
10,S=C1Nc2cnc3ccccc3c2SC1c1ccccc1 (stereo not shown) [NSC667467],-21.66
11,COc1cc(OC)c(OC)cc1/C=C/c1ccnc2ccccc12 [NSC80756],-22.71
12,N[C@@H](CSC(c1ccccc1)(c1ccccc1)c1ccccc1)C(=O)O [NSC83265],-6.04
13,Nc1ccc2nc3ccc(=O)cc-3n(-c3ccccc3)c2c1 [NSC31702],-41.86
14,C[C@@H]1C[C@H]2OC(=O)[C@@]3(C)CCC[C@@](C)([C@@H]23)[C@@]1(O)CCc1ccoc1 [NSC36693],-16.69
15,CCC[CH2][Pb]([Cl])([CH2]CCC)[CH2]CCC [NSC168597],-54.94
16,Nc1nncs1 [NSC4728],-23.83
17,Br.COC1CN(C)C(=Nc2cccc3ccccc23)S1 (stereo not shown) [NSC135996],-24.95
18,CC(=O)O[C@@H]1C[C@H]2O[C@@H]3C=C(C)CC[C@]3(C)[C@]1(C)[C@]21CO1 [NSC267033],-8.12
19,CO[C@@H](/C(C)=C/C=C/C(C)=C/c1coc(C)n1)[C@@H](C)[C@@H]1C[C@H](O)[C@@]2(C)O[C@@H]2/C=C/[C@@H](C)[C@H]2C[C@H](CC(=O)O2)C[C@@H]2O[C@H]2C(=O)O1 [NSC332598],-143.77
20,CC(/C=N/N=C(N)N)=N\N=C(N)N [NSC32946],-50.60
21,O=C(CC1(O)C(=O)Nc2c(Cl)cc(Cl)cc21)c1cccc([N+](=O)[O-])c1 (stereo not shown) [NSC635438],-43.53
22,C[C@H]1O[C@@H](c2ccc3c(c2O)C(=O)C2=C(C3=O)[C@@]3(O)C(=O)C[C@](C)(O)C[C@@]3(O)C=C2)C[C@@H](O)[C@@H]1O [NSC184398],-31.06
23,C[C@H](CSC(=O)c1ccccc1)C(=O)N1c2ccccc2C[C@H]1C(=O)O [NSC604535],-8.81
24,COc1ccc(/C(=N/O)C(c2ccc(OC)cc2)C2C(=O)Oc3ccccc32)cc1 (stereo not shown) [NSC641607],-85.63
